Structures can show the parent of a compound that is named as a salt. Where two headings read alike, the source gives them in different places.
Assays:
Type in all cases: cell-based
GluR6 kainate receptor = molecular target: T1, GluR6 kainate receptor (Rattus norvegicus, UniProt P42260); test: Kainate-induced currents, Xenopus oocytes injected with GluR6 cRNA
T1 construct: expressed in transfected cells; host or cells: Xenopus oocytes injected with GluR6 cRNA (concanavalin A treated)
Text: (§1) Plasmids were obtained from the following individuals: Dr. Suzanne Zukin (Albert Einstein College of Medicine, Bronx, N.Y.), NR1100; Dr. Shigetada Nakanishi (Kyoto University Faculty of Medicine, Kyoto, Japan), NR2A; Dr. Stephen Heinemann (Salk Institute, San Diego, Calif.), GluR1 (flop), GluR3 (flop), and GluR6. Plasmids were linearized with BamH1 (NR1100), XhoI (NR2A, GluR1, GluR3) or XbaI (GluR6) prior to in vitro transcription with T3 (GluR1, GluR3, GluR6) or T7 (NR1100, NR2A) RNA polymerase using the Message Machine kit (Ambion, Austin, Tex.). […] RNA solutions (50-70 nl) were injected into oocytes for delivery of NR1100 (5 ng), NR1100:NR2A (1:10 ng), GluR1 (5 ng). GluR3 (5 ng), or GluR6 (20 ng). Oocytes were incubated in ND96 at 18-20° C. for 3-7 days prior to electrophysiological recording.
(§2) Steroid solutions were prepared as 70-100 mM frozen stocks in dimethyl sulfoxide (DMSO). The final DMSO concentration of all recording solutions was between 0.1% to 0.5% and was constant within an experiment.
(§3) Perfusion control and data acquisition were carried out using an automated oocyte electrophysiology workstation that was developed for the rapid collection of concentration-response data and real-time waveform analysis (Yaghoubi et al., Soc. Neurosci. Abstr. 20: 1109 (1995)). This system is implemented on a Macintosh IIci computer (Apple Computer, Cupertino, Calif.) equipped with MacA-DIOS II data acquisition and control hardware (GW Instruments, Somerville, Mass.). Drug application is controlled by the computer through a series of valves, using custom-written software based on the SuperScope II development environment, improving the efficiency and reproducibility of data collection. Experiments were carried out using an Axoclamp-2A voltage clamp amplifier (Axon Instruments, Foster City, Calif.) in two-electrode voltage clamp mode. Intracellular microelectrodes (1-3 MΩ) were filled with 3 M KCl. […] Membrane potential was clamped at −60 to −70 mV and stepped to −100 mV at the start of data acquisition unless otherwise stated. […] Current and voltage recordings were digitized at 100 Hz for analysis. GluR6 injected oocytes were treated for 10 min with 10 μg/ml concanavalin A to prevent fast desensitization.
(§4) Results are expressed as mean±S.E.M. Statistical comparisons were made using Student's t-test.

NR1100 NMDA receptor = molecular target: T2, NR1100 NMDA receptor (Rattus norvegicus, UniProt P35439); test: NMDA-induced currents, Xenopus oocytes injected with NR1100 cRNA only, Example 1
T2 construct: expressed in transfected cells; host or cells: Xenopus oocytes injected with NR1100 cRNA only
Text: as §1, §2, §3, §4

NR1111/NR2A = test: NMDA-induced currents of NR1 splice variants, Xenopus oocytes, Example 4
Protocol: Overnight cultures (500 ml) of transformed bacterial cells were prepared in order to grow sufficient quantities for maxiprep isolation of the plasmid CDNA. Maxipreps were done using a Sorvall RC-5B ultracentrifuge, Qiagen columns and cDNA was quantitated with spectrophotometry (OD260 and OD260/ OD280 ratio). The resulting plasmid cDNA was linearized by digestion with an appropriate restriction enzyme that cleaves distal to the cDNA insert (XhoI for NR2A or NotI for NR1100, NR1000, NR1111, NR1011, NR1101, NR1001). […] The samples were stored at −20° C. until use.
In vitro transcription was performed using the Ambion mMessage mMachine kit with T7 (NR1100, NR1000, NR1111, NR1011, NR1101, NR1001) RNA polymerase. The reaction was assembled on ice and allowed to incubate at 37° C. for 1-2 hr. The resulting mRNA was precipitated (reaction termination) using lithium chloride/5 mM EDTA solution and dissolved in RNase-free H2O. The concentration (OD260) and OD260/OD280 ratio (should be more than 1.5) was determined by spectrophotometer. The yield of mRNA was generally 15-30 μg. mRNA was stored at −80° C. until use.
Intracellular recording microelectrodes were fabricated from 100 μl borosilicate glass disposable micropipettes using a 2-step protocol on a standard horizontal Flaming-Brown micropipette puller.

[1] = system: primary cultures of rat hippocampal neurons; test: NMDA-induced neuronal death, trypan blue exclusion
[2] = acute 15 min NMDA exposure, +100 μM 3α5βS
[3] = acute 15 min NMDA exposure, DMSO vehicle
[4] = chronic 16 hour NMDA exposure, +100 μM 3α5βS
[5] = chronic 16 hour NMDA exposure, DMSO vehicle

T1 sequence (P42260 32-908): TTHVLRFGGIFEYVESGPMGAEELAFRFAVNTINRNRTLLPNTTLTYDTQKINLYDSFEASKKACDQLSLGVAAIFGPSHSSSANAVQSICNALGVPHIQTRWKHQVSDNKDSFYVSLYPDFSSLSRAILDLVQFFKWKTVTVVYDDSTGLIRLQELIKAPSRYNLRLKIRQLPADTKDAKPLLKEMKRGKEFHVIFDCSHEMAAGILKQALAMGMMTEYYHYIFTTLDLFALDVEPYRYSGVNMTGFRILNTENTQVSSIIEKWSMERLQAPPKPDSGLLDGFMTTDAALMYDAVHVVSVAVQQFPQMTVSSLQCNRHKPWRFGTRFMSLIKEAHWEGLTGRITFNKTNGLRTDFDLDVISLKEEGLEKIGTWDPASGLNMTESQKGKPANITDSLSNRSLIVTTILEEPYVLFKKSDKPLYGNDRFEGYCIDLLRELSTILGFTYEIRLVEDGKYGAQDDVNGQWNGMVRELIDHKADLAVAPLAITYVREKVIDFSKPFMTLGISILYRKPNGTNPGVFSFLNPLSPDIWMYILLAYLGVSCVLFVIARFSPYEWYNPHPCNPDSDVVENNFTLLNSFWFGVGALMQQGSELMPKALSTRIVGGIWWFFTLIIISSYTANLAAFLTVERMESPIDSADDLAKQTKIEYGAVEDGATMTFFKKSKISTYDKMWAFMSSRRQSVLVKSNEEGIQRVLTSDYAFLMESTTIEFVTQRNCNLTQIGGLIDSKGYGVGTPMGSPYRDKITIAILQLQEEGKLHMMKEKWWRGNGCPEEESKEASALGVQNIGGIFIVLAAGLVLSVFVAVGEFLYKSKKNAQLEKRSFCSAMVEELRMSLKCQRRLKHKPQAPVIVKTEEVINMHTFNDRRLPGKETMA

## pregnenolone sulfate [PS]
GluR6 kainate receptor; GluR6, 10 μM kainate
  PS nH, inhibition of kainate-induced current: 0.29
GluR6 kainate receptor; GluR6, 500 μM PS
  inhibition of kainate response: 64±2%
GluR6 kainate receptor; GluR6, PS 100 μM
  reduction of kainate Imax: 33%
GluR6 kainate receptor; GluR6, steroid 100 μM
  inhibition of the response to kainate: 42%
GluR6 kainate receptor; GluR6, steroid 100 μM, 10 μM kainate, −100 mV
  Percentage change in kainate response: −42 ± 3(8) %
NR1100 NMDA receptor; NR1100 cRNA only
  maximum potentiation of NMDA induced current: 114%
NR1100 NMDA receptor; NR1100 cRNA only, 300 μM NMDA
  steroid Emax (NMDA-induced current relative to control): 2.14
NR1111/NR2A
  difference in mrc between NR1011/NR2A and NR1111/NR2A: 1.2 fold
NR1111/NR2A; 100 μM PS, pH 6.5
  difference in mrc between NR1011/NR2A and NR1111/NR2A: 1.8 fold
NR1111/NR2A; 100 μM PS, pH 7.5
  difference in mrc between NR1011/NR2A and NR1111/NR2A: 1.6 fold
  difference in percentage potentiation between NR1011/NR2A and NR1111/NR2A: 106%
NR1111/NR2A; 100 μM PS, pH 8.5
  difference in percentage potentiation between NR1011/NR2A and NR1111/NR2A: 91%

## CN[C@H](CC(=O)O)C(=O)O [NMDA, N-methyl-D-aspartate]
[1]; [2]
  NMDA Emax, neuronal death: 63%
  NMDA nH, neuronal death: 1.8
[1]; [3]
  NMDA Emax, neuronal death: 80%
  NMDA nH, neuronal death: 2.1
[1]; [4]
  NMDA Emax, neuronal death: 70%
  NMDA nH, neuronal death: 2.0
[1]; [5]
  NMDA Emax, neuronal death: 86%
  NMDA nH, neuronal death: 1.9
[1]; read-out: NMDA EC50 for neuronal death, acute 15 min NMDA exposure, +100 μM 3α5βS
  EC50: 71 µM
[1]; read-out: NMDA EC50 for neuronal death, acute 15 min NMDA exposure, DMSO vehicle
  EC50: 28 µM
[1]; read-out: NMDA EC50 for neuronal death, chronic 16 hour NMDA exposure, +100 μM 3α5βS
  EC50: 15 µM

## CC(=O)[C@H]1CC[C@H]2[C@@H]3CC[C@@H]4C[C@H](OS(=O)(=O)O)CC[C@]4(C)[C@H]3CC[C@]12C [3α5βS, 3α5β-pregnanolone sulfate]
GluR6 kainate receptor
  Percentage change in kainate response: −34 ± 5(7) %
NR1100 NMDA receptor
  EC50: 57 µM
[1]; Rattus norvegicus, Hippocampal neuron, read-out: 3α5βS EC50, inhibition of NMDA-induced neuronal death
  EC50: 45 µM
[1]; acute 30 μM NMDA exposure
  3α5βS nH, inhibition of neuronal death: 2.5
  maximal inhibition (Imax) of cell death: 97%
[1]; acute 30 μM NMDA, steroid 100 μM (3α5β 50 μM)
  inhibition of NMDA-induced neuronal death: nearly eliminates the toxic effects
NR1111/NR2A; 100 μM 3α5βS
  difference in percentage inhibition between NR1011/NR2A and NR1111/NR2A: 5%

From US6623933B1 (priority 1999, dated 2003)
